These results are taken from US20060040871A1, “Bacterial transforming agent” (priority 2003, published 2006).

Like-named read-outs stand apart in the source and are kept apart here.

Assay [1] deals with MRSA. The assay can be described thus: MIC of ceftazidime or cefuroxime for MRSA grown with or without GBE (Table 2). Type of assay: cell-based, Staphylococcus aureus. The settings on record: Control; for MIC: Staphylococcus aureus. An excerpt: Importantly, the usefulness of the agents of the present invention is not limited to increasing bacterial sensitivity to methicillin.

The subject of assay [2] is MRSA. Put plainly: Antimicrobial plus BTA against recent clinical MRSA isolates (Table 7). It counts as cell-based, Staphylococcus aureus. An excerpt: The four clinical isolates were isolated from patients during the first three months of 2003. […] An intermediate MRSA has been included, as methicillin-resistance has been achieved by means other than production of PBP2a.

In the next assay the test system is VRE. The assay can be described thus: Antimicrobial plus BTA against VRE (Table 7). It counts as cell-based, enterococci. As to conditions: +BTA 0.1%.
Assay [3] concerns MRSA with intermediate resistance to glycopeptides. Put plainly: MIC of vancomycin or teicoplanin for MRSA with intermediate resistance to glycopeptides grown with GBE or NAGly (Table 4). It counts as cell-based, Staphylococcus aureus. As to conditions: NAGly 0.001M; for MIC: Staphylococcus aureus, read-out: MIC of teicoplanin.
Another assay has as its system S. aureus. The assay can be described thus: MIC of methicillin for already sensitive S. aureus with GBE, with or without 1% human plasma (Table 6). It counts as cell-based, Staphylococcus aureus. The settings on record: Staphylococcus aureus, no plasma (Control 1). From the text: As previously mentioned, a common cause of auto-infection is due to S. aureus carried on the anterior nares. […] The transforming agents of the present invention may also be used in combination with a suitable antimicrobial to eliminate nasal carriage of MSSA prior to cardiac surgery or other invasive procedures carrying a high risk of auto-infection.

The subject of assay [4] is MRSA. Put plainly: MIC of methicillin for MRSA isolates grown with glycine or GBE (Table 1). It counts as cell-based, Staphylococcus aureus. As to conditions: 0.0 (Control); for MIC: Staphylococcus aureus.

Consider `CC(C)(O/N=C(\C(=O)N[C@@H]1C(=O)N2C(C(=O)[O-])=C(C[n+]3ccccc3)CS[C@H]12)c1csc(N)n1)C(=O)O` [Ceftazidime, ceftazidime], for which the MIC of ceftazidime in the assay on MRSA [1] (CD40 (EMRSA-1)), with MRSA [1] (E15-97 (EMRSA-15)), in the assay on MRSA [1] (E16-96 (EMRSA-16)), in the assay on MRSA [1] (JF1-32 (EMRSA-1)), in the assay on MRSA [1] (MC01 (EMRSA-1)) and with MRSA [1] (PS3-32 (EMRSA-1)) was over 256 mg/L in each case. Further, the MIC of ceftazidime in the assay on MRSA [1] (SN31 (EMRSA-1)), in the assay with MRSA [1] (ST11 (EMRSA-1)) and with MRSA [1] (SW2-32 (EMRSA-1)) was over 256 mg/L each time. Moreover, the MIC (commonly the least concentration at which growth counts as inhibited) is over 256 µg/mL with MRSA [1] (MRSA / NCTC 12493, NCTC 12493, read-out: MIC of ceftazidime) and over 256 µg/mL in the assay on MRSA [1] (MRSA, DS09 (EMRSA-1), read-out: MIC of ceftazidime).

Take `CO/N=C(\C(=O)N[C@@H]1C(=O)N2C(C(=O)O)=C(COC(N)=O)CS[C@H]12)c1ccco1` [Cefuroxime, cefuroxime]: the MIC of cefuroxime in the assay on MRSA [1] (CD40 (EMRSA-1)), in the assay on MRSA [1] (E15-97 (EMRSA-15)), with MRSA [1] (E16-96 (EMRSA-16)), in the assay with MRSA [1] (JF1-32 (EMRSA-1)), in the assay with MRSA [1] (MC01 (EMRSA-1)) and in the assay with MRSA [1] (PS3-32 (EMRSA-1)) was over 256 mg/L each time. Further, the MIC of cefuroxime with MRSA [1] (SN31 (EMRSA-1)), in the assay on MRSA [1] (ST11 (EMRSA-1)) and with MRSA [1] (SW2-32 (EMRSA-1)) was over 256 mg/L each time. The MIC with MRSA [1] (MRSA / NCTC 12493, NCTC 12493, read-out: MIC of cefuroxime) was over 256 µg/mL; with MRSA [1] (MRSA, DS09 (EMRSA-1), read-out: MIC of cefuroxime), over 256 µg/mL.

Consider `CC1=C(C(=O)O)N2C(=O)[C@@H](NC(=O)[C@H](N)c3ccccc3)[C@H]2SC1` [Cephalexin, cephalexin], for which the Cephalexin (antimicrobial plus BTA; quantity not named, MIC implied) in the assay with MRSA [2] (I-MRSA, cephalexin alone) is 32 µg/mL.

Regarding `O=C(O)CNC(=O)c1ccccc1` [HA, Hippuric acid (N-Benzoylglycine)], the Oxacillin (antimicrobial plus BTA; quantity not named, MIC implied) in the assay on MRSA [2] (EMRSA-16, +BTA 0.01%) amounted to 6 µg/mL; in the assay with MRSA [2] (EMRSA-16, +BTA 0.1%) it was 4 µg/mL; with MRSA [2] (EMRSA-17, +BTA 0.01%) it was 8 µg/mL; with MRSA [2] (EMRSA-17, +BTA 0.1%), 4 µg/mL; in the assay with MRSA [2] (I-MRSA, +BTA 0.01%) it was 4 µg/mL; in the assay with MRSA [2] (I-MRSA, +BTA 0.1%), 2 µg/mL. For the same compound, the Cephalexin (antimicrobial plus BTA; quantity not named, MIC implied) is 6 µg/mL in the assay with MRSA [2] (EMRSA-16, +BTA 0.1%); 8 µg/mL in the assay with MRSA [2] (EMRSA-17, +BTA 0.1%); 2 µg/mL in the assay with MRSA [2] (I-MRSA, +BTA 0.1%). For the same compound, the Vancomycin (antimicrobial plus BTA; quantity not named, MIC implied) in the assay with MRSA [2] (EMRSA-16, +BTA 0.1%) was 0.25 µg/mL; in the assay with MRSA [2] (EMRSA-17, +BTA 0.1%) it was 0.25 µg/mL; with MRSA [2] (I-MRSA, +BTA 0.1%) it was under 0.25 µg/mL; with VRE, 64 µg/mL.

`CC(=O)NCC(=O)O` [NAGly, N-acetylglycine]: the MIC of vancomycin worked out at 4 mg/L in assay [3] (L266 (first line), EMRSA-17 (VISA)); 2 mg/L in assay [3] (L266 (second line), EMRSA-17 (VISA)); 0.25 mg/L in assay [3] (NCTC 12493). Besides, in assay [3] (L266, EMRSA-16 (TISA)), the MIC of teicoplanin turned out to be 4 mg/L. Besides, the MIC in assay [3] (MRSA / NCTC 12493, NCTC 12493) amounted to 0.15 µg/mL; in assay [3] (MRSA, L265, EMRSA-16 (TISA)) it was 4 µg/mL.

On to `Cc1onc(-c2ccccc2)c1C(=O)N[C@@H]1C(=O)N2[C@@H]1SC(C)(C)[C@@H]2C(=O)O` [Oxacillin, oxacillin], for which the Oxacillin (antimicrobial plus BTA; quantity not named, MIC implied) in the assay on MRSA [2] (EMRSA-16, oxacillin alone) was found to be 256 µg/mL; in the assay with MRSA [2] (EMRSA-17, oxacillin alone), 256 µg/mL; with MRSA [2] (I-MRSA, oxacillin alone) it was 32 µg/mL.

Regarding `COc1cccc(OC)c1C(=O)N[C@@H]1C(=O)N2[C@@H]1SC(C)(C)[C@@H]2C(=O)O` [methicillin], the MIC is over 256 µg/mL with S. aureus (5518 (EMRSA-1)); under 0.25 µg/mL in the assay with S. aureus (LHS77); 0.25 µg/mL in the assay on S. aureus (LHS78); 0.5 µg/mL in the assay on S. aureus (LHS79); 0.25 µg/mL in the assay on S. aureus (LHS80); under 0.25 µg/mL in the assay with S. aureus (LHS81). Besides, the MIC with S. aureus (LHS82) amounted to 0.5 µg/mL; in the assay with S. aureus (LHS83), 0.25 µg/mL; in the assay with S. aureus (LHS84) it was 0.25 µg/mL; in the assay with S. aureus (LHS85), 0.25 µg/mL; in the assay with S. aureus (LHS86) it was 0.25 µg/mL; in the assay on S. aureus (LHS87) it was 0.5 µg/mL. The MIC in the assay on S. aureus (LHS88) is 0.25 µg/mL; in the assay with S. aureus (LHS89), 0.25 µg/mL; in the assay with S. aureus (LHS90), under 0.25 µg/mL; in the assay on S. aureus (LHS91) it was under 0.25 µg/mL; in the assay on S. aureus (LHS92), 0.5 µg/mL; in the assay on S. aureus (LHS93), 0.25 µg/mL. Also, the MIC is 0.25 µg/mL in the assay with S. aureus (LHS94); over 256 µg/mL with MRSA [4] (MRSA / NCTC 12493, NCTC 12493); over 256 µg/mL with MRSA [4] (MRSA, L266). The MIC of methicillin with MRSA [4] (CD40 (EMRSA-1)), in the assay with MRSA [4] (DS09 (EMRSA-1)), in the assay on MRSA [4] (E15-97 (EMRSA-15)), in the assay with MRSA [4] (E16-96 (EMRSA-16)), in the assay on MRSA [4] (JF1-32 (EMRSA-1)) and in the assay on MRSA [4] (L265) was over 256 mg/L in each case. For the same compound, the MIC of methicillin in the assay on MRSA [4] (L267), with MRSA [4] (L268), in the assay with MRSA [4] (L269), in the assay on MRSA [4] (L270), with MRSA [4] (L271) and in the assay on MRSA [4] (L272) was over 256 mg/L in each case. In addition, the MIC of methicillin in the assay on MRSA [4] (L273), with MRSA [4] (L274), in the assay on MRSA [4] (L275), in the assay on MRSA [4] (L276), with MRSA [4] (L277) and in the assay with MRSA [4] (L278) was over 256 mg/L each time. The MIC of methicillin in the assay on MRSA [4] (L279), in the assay on MRSA [4] (L280), in the assay on MRSA [4] (L281), in the assay on MRSA [4] (L282), in the assay on MRSA [4] (L283) and with MRSA [4] (L284) was over 256 mg/L throughout. Also, the MIC of methicillin in the assay with MRSA [4] (L285), in the assay on MRSA [4] (L286), with MRSA [4] (L287), in the assay on MRSA [4] (L288), with MRSA [4] (L289) and with MRSA [4] (L290) was over 256 mg/L in each case. The MIC of methicillin in the assay with MRSA [4] (L291), with MRSA [4] (L292), in the assay with MRSA [4] (L293), in the assay with MRSA [4] (L294), in the assay with MRSA [4] (MC01 (EMRSA-1)) and in the assay on MRSA [4] (PS3-32 (EMRSA-1)) was over 256 mg/L each time. Besides, the MIC of methicillin in the assay with MRSA [4] (SN31 (EMRSA-1)), in the assay with MRSA [4] (ST11 (EMRSA-1)) and in the assay with MRSA [4] (SW2-32 (EMRSA-1)) was over 256 mg/L in each case.
